From patent US20230167150A1, “CD33 LIGANDS SUITABLE FOR INCORPORATION INTO CARRIERS” (GLYCOMIMETICS, INC., priority 2020, published 2023) come the findings set out here.

A word on the IC50: it is the concentration that inhibits the measured activity by half. A lower IC50 goes with higher potency.

This experiment has as its target T1, CD33 (Homo sapiens, UniProt P20138).
T1 construct: purchased BioLegend 750106
Kind of experiment: CD33 activity competitive binding assay (ELISA). As to conditions: immobilized CD33-Fc; competition with Neu5Acα2-3Galβ1-3GalNAc-PAA-biotin; streptavidin/horseradish peroxidase, TMB, absorbance 450 nm. The protocol:
The assay to screen for and characterize glycomimetic ligands of CD33 is a competitive binding assay, which allows the determination of IC50 values. CD33-Fc (BioLegend catalog item 750106) was immobilized in 96 well microtiter plates by incubation at 4° C. overnight. To reduce non-specific binding, bovine serum albumin was added to each well and incubated at room temperature for 3 hours. The plate was washed and serial dilutions of the test compounds were added to the wells in the presence of biotinylated polyacrylamide conjugated with Neu5Acα2-3Galβ1-3GalNAc-PAA-biotin (GlycoTech catalog item 01-088). After incubation at room temperature for 2 hours and washing, streptavidin/horseradish peroxidase was added to each well and incubated at room temperature for 30 minutes followed by an additional wash.
To determine the amount of glycopolymer bound to the immobilized CD33, the peroxidase substrate […] tetramethylbenzidine (TMB) was added. After 5 minutes, the enzyme reaction was stopped by the addition of H3PO4, and the absorbance of light at a wavelength of 450 nm was determined. The concentration of test compound required to inhibit binding by 50% was determined and reported as the IC50 value.

Each structure is given as a SMILES string.

T1 sequence (P20138 18-364): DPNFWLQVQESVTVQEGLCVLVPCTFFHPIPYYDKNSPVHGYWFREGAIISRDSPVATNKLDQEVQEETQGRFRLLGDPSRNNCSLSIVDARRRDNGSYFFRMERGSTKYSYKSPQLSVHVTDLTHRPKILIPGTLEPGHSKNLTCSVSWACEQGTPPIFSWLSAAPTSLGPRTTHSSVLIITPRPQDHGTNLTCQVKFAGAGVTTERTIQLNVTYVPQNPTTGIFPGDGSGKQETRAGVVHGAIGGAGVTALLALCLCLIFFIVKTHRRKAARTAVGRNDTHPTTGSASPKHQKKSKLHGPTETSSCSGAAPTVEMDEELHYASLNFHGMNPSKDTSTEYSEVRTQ

As to `Cc1cc(C(=O)NC[C@@H](O)[C@@H](O)C2O[C@@](OCCCN(Cc3ccccc3)C(=O)CCOCCOCCOCCOCCOCCOCCN=[N+]=[N-])(C(=O)O)CC(O)[C@H]2NC(=O)Cn2cc(C3CCCCC3)nn2)cc(C)c1O` (some centres unmarked) [Compound 13], the IC50 came out at 54 µM.
Consider `Cc1cc(C(=O)NC[C@@H](O)[C@@H](O)C2O[C@@](OCCCN(CCc3ccccc3)C(=O)CCOCCOCCOCCOCCOCCOCCN=[N+]=[N-])(C(=O)O)CC(O)[C@H]2NC(=O)Cn2cc(C3CCCCC3)nn2)cc(C)c1O` (some centres unmarked) [Compound 15], for which the IC50 was found to be 27 µM.
